For four molecules, mortality results are on record in EP4603492A1, “SULFONAMIDE COMPOUND AND HARMFUL-ARTHROPOD-CONTROLLING COMPOSITION CONTAINING SAME” (Sumitomo Chemical Company, Limited, priority 2022, dated 2024).

Common to all, as to format: in vivo
In assay [1] the test system is diamondback moth (Plutella xylostella). As to the kind of experiment: Test method 4: sprayed cabbage leaves, 2nd instar larvae of diamondback moth (Formulation Example 1). Particulars: 120 h, Test Example 4-1, spray 20 mL/seedling, after 5 days, 25°C. As to the method: (§1) Each test compound is formulated according to the method mentioned in Formulation Example 1 to obtain each formulation, and water containing 0.03% by volume of Shindaine (registered trademark) is added thereto to prepare a diluted solution containing a prescribed concentration of each test compound.
Each of the diluted solutions is sprayed over cabbage (Brassicae oleracea) seedlings (on the developmental stage of the second to third true leaf) planted in a container in a ratio of 20 mL/seedling. Thereafter, the stem and leaf of the seedlings are cut out, and placed in a container lined with a filter paper. Five 2nd instar larvae of diamondback moth (Plutella xylostella) are released into the container. After 5 days, the number of the surviving insects is counted, and the mortality of insects is calculated by the following equation. [formula]
The test was carried out by making the prescribed concentration 500 ppm and using the following present compounds as a test compound according to the test method 4.

The subject of assay [2] is common cutworm (Spodoptera litura). The experiment in a line: Test method 3: sprayed cabbage leaves, 2nd instar larvae of common cutworm (Formulation Example 1). To be noted: 120 h, Test Example 3-1, spray 20 mL/seedling, after 5 days, 25°C. As to the method: as §1
Each of the diluted solutions is sprayed over cabbage (Brassicae oleracea) seedlings (on the developmental stage of the second to third true leaf) planted in a container in a ratio of 20 mL/seedling. Thereafter, the stem and leaf of the seedlings are cut out, and placed in a container lined with a filter paper. Five 2nd instar larvae of common cutworm (Spodoptera litura) are released into the container. After 5 days, the number of the surviving insects is counted, and the mortality of insects is calculated by the following equation. [formula]
The test was carried out by making the prescribed concentration 500 ppm and using the following present compounds as a test compound according to the test method 3.

Assay [3] has as its system diamondback moth (Plutella xylostella). As to the kind of experiment: Test method 10: sprayed cabbage seedlings, 3rd instar larvae of diamondback moth (Formulation Example 5). Particulars: 120 h, spray 20 mL/seedling, after 5 days, 25°C; for mortality at 200 ppm: Test Example 10-1, 200 ppm; for mortality at 50 ppm: Test Example 10-2, 50 ppm. The protocol:
(§2) Each test compound is formulated according to the method mentioned in Formulation Example 5 to obtain each formulation, and water containing 0.03% by volume of Shindaine (registered trademark) is added thereto to prepare a diluted solution containing a prescribed concentration of each test compound.
Each of the diluted solutions is sprayed over cabbage (Brassicae oleracea) seedlings (on the developmental stage of the third to fourth true leaf) planted in a container in a ratio of 20 mL/seedling. Thereafter, ten 3rd instar larvae of diamondback moth (Plutella xylostella) are released into the container. After 5 days, the number of the surviving insects is counted, and the mortality of insects is calculated by the following equation. [formula]
The test was carried out by making the prescribed concentration 200 ppm and using the following present compounds as a test compound according to the test method 10.
The test was carried out by making the prescribed concentration 50 ppm and using the following present compounds as a test compound according to the test method 10.

Assay [4] has as its system cotton aphids (Aphis gossypii). As to the kind of experiment: Test method 1: spray on cucumber seedlings infested with cotton aphids (Formulation Example 1). To be noted: 120 h, Test Example 1-1, spray 10 mL/seedling, 5 days after spraying, 25°C, read-out: control value. As to the method:
as §1
Approximately 30 cotton aphids (Aphis gossypii) (all stages of life) are released onto cucumber (Cucumis sativus) seedlings (on the developmental stage of the second true leaf) planted in a container. After 1 day, each of the diluted solutions is sprayed over the seedlings in a ratio of 10 mL/seedling. After additional 5 days, the number of the surviving insects is examined and the control value is calculated by the following equation. Control value (%) = {1−(Cb×Tai)/(Cai×Tb)} × 100 [formula] where symbols in the equation represent the following meanings: • Cb: Number of test insects in non-treated area; • Cai: Number of surviving insects at the time of the investigation in non-treated area; • Tb: Number of test insects in treated area; and • Tai: Number of surviving insects at the time of the investigation in treated area.
Here, the "non-treated area" represents an area where the same treatment procedure as that of the treated area is carried out except for not using each test compound.
The test was carried out by making the prescribed concentration 500 ppm and using the following present compounds as a test compound according to the test method 1.

For assay [5], the system named is common cutworm (Spodoptera litura). As to the kind of experiment: Test method 9: sprayed cabbage seedlings, 3rd instar larvae of common cutworm (Formulation Example 5). To be noted: 144 h, Test Example 9-1, spray 20 mL/seedling, after 6 days, 25°C. The protocol:
as §2
Each of the diluted solutions is sprayed over cabbage (Brassicae oleracea) seedlings (on the developmental stage of the third to fourth true leaf) planted in a container in a ratio of 20 mL/seedling. Thereafter, ten 3rd instar larvae of common cutworm (Spodoptera litura) are released into the container. After 6 days, the number of the surviving insects is counted and the mortality of insects is calculated by the following equation. [formula]
The test was carried out by making the prescribed concentration 200 ppm and using the following present compounds as a test compound according to the test method 9.

Assay [6] concerns western corn rootworm (Diabrotica virgifera virgifera). As to the kind of experiment: whole plant or invertebrate. To be noted: 120 h. The protocol: Each test compound is dissolved in 50 µL of a mixed solution of polyoxyethylene sorbitan monococoate and acetone (at a volume ratio of 5:95) per 1 mg of the test compound. Water containing 0.03% by volume of Shindaine (registered trademark) is added thereto to prepare a diluted solution containing a prescribed concentration of each test compound.
Young seedlings of corns (Zea mays) are immersed in each of the diluted solutions for 30 seconds. Thereafter, two seedlings are placed in a petri dish (diameter: 90 mm), and ten 2nd instar larvae of western corn rootworm (Diabrotica virgifera virgifera) are released into the dish. After 5 days, the number of the […] is counted, and the mortality of insects is calculated by the following equation. Mortality (%) = (1−Numberofdeadinsects/10) × 100 [formula]
The test was carried out by making the prescribed concentration 200 ppm and using the following present compounds as a test compound according to the test method 5.

Assay [7] deals with cotton aphids (Aphis gossypii). The experiment in a line: whole plant or invertebrate. To be noted: topical, 120 h, read-out: control value. As to the method: Each test compound is formulated according to the method mentioned in Formulation Example 5 to obtain each formulation, and water containing 0.03% by volume of […] (registered trademark) is added thereto to prepare a diluted solution containing a prescribed concentration of each test compound. Approximately thirty cotton aphids (Aphis gossypii) (all stages of life) are released onto cucumber (Cucumis sativus) seedlings (on the developmental stage of the second true leaf) planted in a container. After 1 day, each of the diluted solutions is sprayed over the seedlings in a ratio of 10 mL/seedling. After additional 5 days, the number of the surviving insects is examined and the control value is calculated by the following equation. Control value (%) = {1-(Cb×Tai)/(Cai×Tb)} × 100 [formula] where symbols in the equation represent the following meanings: • Cb: Number of test insects in non-treated area; • Cai: Number of surviving insects at the time of the investigation in non-treated area; • Tb: Number of test insects in treated area; and • Tai: Number of surviving insects at the time of the investigation in treated area. Here, the "non-treated area" represents an area where the same treatment procedure as that of the treated area is carried out except for not using each test compound. The test was carried out by making the prescribed concentration 200 ppm and using the following present compounds as a test compound according to the test method 11. […] The test was carried out by making the prescribed concentration 50 ppm and using the following present compounds as a test compound according to the test method 11.

The subject of assay [8] is German cockroach (Blattella germanica). The experiment in a line: Test method 6: coated container contact test, German cockroach male adults. Particulars: 72 h, read-out: mortality of insects. The protocol:
An acetone solution prepared by making the concentration of the test compound 800 ppm is poured into a 50 mL container, and the inner face of the container is uniformly coated with the test compound so as to make the coating amount of 40 mg/m^2, followed by drying.
Five German cockroach (Blattella germanica) male adults are released into the container, and the container is then covered with a lid. After the prescribed time is elapsed, the state of the German cockroach are examined. The mortality of insects is calculated by the following equation. [formula]
The test was carried out by making the prescribed elapsed time 3 days and using the following present compounds as a test compound according to the test method 6.

In assay [9] the test system is houseflies (Musca domestica). As to the kind of experiment: Test method 8: coated container contact test, adult male houseflies. Particulars: 24 h, read-out: mortality of insects. As to the method:
An acetone solution prepared by making the concentration of the test compound 800 ppm is poured into a 20 mL container, and the inner face of the container is uniformly coated with the test compound so as to make the coating amount of 40 mg/m^2, followed by drying.
Five adult male houseflies (Musca domestica) are released into the container, and the container is then covered with a lid. After the prescribed time is elapsed, the state of the houseflies are examined. The mortality of insects is calculated by the following equation. [formula]
The test was carried out by making the prescribed elapsed time 1 day and using the following present compounds as a test compound according to the test method 8.

For assay [10], the system named is common house mosquito (Culex pipiens pallens). As to the kind of experiment: Test method 12: final instar larvae of common house mosquito released into diluted solution. To be noted: 24 h, read-out: control value. As to the method:
Each test compound is formulated according to the method mentioned in Formulation Example 1 to obtain each formulation, and water is added thereto to prepare a diluted solution containing a prescribed concentration of each test compound.
Thirty final instar larvae of common house mosquito (Culex pipiens pallens) are released into the diluted solution and, after 1 day, the state of the common house mosquito larvae is examined and the mortality of insects is calculated by the following equation. [formula]
The test was carried out by making the prescribed concentration 3.5 ppm and using the following present compounds as a test compound according to the test method 12.

Consider `CN(C)S(=O)(=O)c1c(-c2ccc(OCC(F)(F)C(F)F)nn2)nc2ccc(I)cn12` [compound 4], for which the mortality at 500 ppm was at least 80% in [1], at least 80% in assay [2] and at least 90% in assay [4]. The mortality at 200 ppm in assay [3] and in [5] was at least 80% in each case. In assay [3], the mortality at 50 ppm is at least 80%.
With `CNS(=O)(=O)c1c(-c2ccc(OCC(F)(F)C(F)F)nn2)nc2ccc(I)cn12` [compound 3], the mortality at 200 ppm in [6] was at least 80%; in assay [7] it was at least 90%; in [3] it was at least 80%; in assay [5] it was at least 80%. In addition, the values for the mortality at 500 ppm in assay [1], in [2] and in assay [4] were at least 80%, at least 80% and at least 90%, respectively. Moreover, the mortality at 50 ppm in assay [7] was at least 90%; in [3], at least 80%.
Turning to `CCNS(=O)(=O)c1c(-c2cnc(OCC(F)(F)C(F)(F)F)cn2)nc2ccc(Br)cn12` [compound 2], the mortality at 40 mg/m2, 40 mg/m2 in assay [8] and in assay [9] was at least 80% throughout. Besides, the mortality at 200 ppm is at least 80% in [6], at least 90% in assay [7], at least 80% in assay [3] and at least 80% in [5]. For the same molecule, the mortality at 500 ppm is at least 80% in assay [1], at least 80% in [2] and at least 90% in assay [4]. The mortality at 50 ppm in assay [7] is at least 90%; in assay [3], at least 80%. Moreover, the mortality at 3.5 ppm in assay [10] is at least 90%.
Consider `CNS(=O)(=O)c1c(-c2cnc(OCC(F)(F)C(F)(F)F)cn2)nc2ccc(Br)cn12` [compound 1], for which the mortality at 40 mg/m2, 40 mg/m2 in [8] and in assay [9] was at least 80% each time. Further, the mortality at 200 ppm is at least 80% in assay [6], at least 90% in assay [7], at least 80% in assay [3] and at least 80% in assay [5]. The mortality at 500 ppm in [1] was at least 80%; in assay [2], at least 80%; in assay [4], at least 90%. The mortality at 50 ppm is at least 90% in assay [7] and at least 80% in assay [3]. The mortality at 3.5 ppm in [10] is at least 90%.
